Test system: brain of rats subjected to closed-head diffuse severe TBI (sTBI)
Assay: HPLC of energy metabolites, antioxidants and oxidative/nitrosative stress biomarkers in brain, dose study after sTBI (Example 3)
Format: in vivo, rat
Conditions: for NAD^+/NADH ratio in brain homogenate: calculated, adimensional, rats 7 days post-sTBI
Excerpt: Male Wistar rats (n=160) of 300-350 g body weight were used in this study.
1994, 80: 291-300. This model causes diffuse axonal injury and it is able to reproduce the physical and mechanical characteristics of the diffuse TBI in humans.
Rats were placed prone on a bed of specific polyurethane foam inserted in a special container. This foam dissipates the major part of the potential energy (deriving from the mechanical forces) and prevents any rebound of the animal after the impact that could produce spinal damages.
These time points are coincident with the worst biochemical derangement (2 days) or, in the case of a mildly injured brain, with a full metabolic recovery (7 days).
The drug treatment consisted in a subcutaneous injection of 0.5 ml of LMW-DS (Tikomed) and administered at 3 different concentrations (1, 5 and 15 mg/kg body weight), according to the schematic protocol described below.
Sham-operated animals underwent the same procedure of anesthesia but TBI and were used as the control group.
Rats used in this study were divided into 4 groups in order to carry out a study on the efficacy of three different concentrations of LMW-DS at two different times post TBI. As subsequently specified, in each group there were animals subjected to a specific treatment for metabolic analyses and other animals intended to histo-morphological studies, according to the procedures described below.
Rats subjected to sTBI and receiving a single administration of LMW-DS after 30 minutes post-TBI, with sacrifice at 2 days post-TBI. Animals were divided in the following subgroups:
Rats subjected to sTBI and receiving a single administration of LMW-DS after 30 minutes post-TBI, with sacrifice at 7 days post-TBI. Animals were divided in the following subgroups:
Rats (n=12) subjected to sTBI and receiving repeated administrations of the maximal dose of LMW-DS (15 mg/kg b.w.) after 30 minutes, 3 days and 5 days post-TBI, with sacrifice at 7 days post-TBI. Four additional rats were used for the histo-morphological studies. Total rats in this group: n=16
To minimize metabolite loss, an in vivo craniectomy was performed in all animals during anesthesia. The rat skull was carefully removed, the brain was exposed, sharply cut along the sagittal fissure and the two hemispheres were separated. The hemispheres dedicated to biochemical analyses were freeze-clamped by aluminum tongues pre-cooled in liquid nitrogen and then immersed in liquid nitrogen. The freeze-clamping procedure was introduced to accelerate freezing of the tissue, thus minimizing potential metabolite loss.
Tissue homogenization for metabolite analyses was effected as described below. After the wet weight (w.w.) determination, the frozen hemispheres were placed into 7 ml of ice-cold, nitrogen-saturated, precipitating solution (1:10 w/v) composed by CH3CN+10 mM KH2PO4, pH 7.40, (3:1; v:v), and the homogenization was performed using an Ultra-Turrax homogenizer set at 24,000 rpm/min (Janke & Kunkel, Staufen, Germany). After centrifugation at 20,690×g, for 10 min at 4° C., the clear supernatants were saved, pellets were supplemented with an aliquot of 10 mM KH2PO4 and homogenized again as described above and saved overnight at −20° C. in order to obtain a complete recovery of aqueous phase from tissue. A second centrifugation was performed (20,690×g, for 10 min at 4° C.) and supernatants combined with those previously obtained were extracted by vigorous agitation with a double volume of HPLC-grade CHCl3 and centrifuged as above.

[1] = 1 mg/kg b.w. single, 30 min after trauma, 2 days post-TBI
[2] = 1 mg/kg b.w. single, 30 min after trauma, 2 days post-sTBI
[3] = 5 mg/kg b.w. single, 30 min after trauma, 2 days post-TBI
[4] = 5 mg/kg b.w. single, 30 min after trauma, 2 days post-sTBI
[5] = 15 mg/kg b.w. single, 30 min after trauma, 2 days post-sTBI
[6] = rats 2 days post-TBI, single 1 mg/kg b.w. 30 min after trauma
[7] = rats 2 days post-TBI, single 5 mg/kg b.w. 30 min after trauma
[8] = rats 2 days post-TBI, single 15 mg/kg b.w. 30 min after trauma

sodium salt of dextran sulfate [LMW-DS]
NO2 brain concentration [1]: 158.36 ± 19.08 nmol/g w.w.
acetyl-CoA brain concentration [1]: 27.74 ± 3.23 nmol/g w.w.
ascorbic acid brain concentration [1]: 2567.35 ± 147.76 nmol/g w.w.
AMP brain concentration [2]: 62.04 ± 7.46 nmol/g w.w.
CMP brain concentration [2]: 29.39 ± 6.00 nmol/g w.w.
CTP brain concentration [2]: 33.01 ± 7.63 nmol/g w.w.
GDP glucose brain concentration [2]: 65.66 ± 41.61 nmol/g w.w.
GMP brain concentration [2]: 205.06 ± 25.74 nmol/g w.w.
IMP brain concentration [2]: 45.97 ± 8.65 nmol/g w.w.
NAD^+/NADH ratio (adimensional) [2]: 33.91 ± 9.32
UDP-Gal brain concentration [2]: 118.50 ± 9.89 nmol/g w.w.
UDP-GalNac brain concentration [2]: 21.24 ± 3.13 nmol/g w.w.
UDP-Glc brain concentration [2]: 45.14 ± 6.68 nmol/g w.w.
UDP-GlcNac brain concentration [2]: 96.62 ± 8.80 nmol/g w.w.
UMP brain concentration [2]: 148.04 ± 20.45 nmol/g w.w.
UTP brain concentration [2]: 104.07 ± 16.34 nmol/g w.w.
GSH brain concentration [3]: 2067.79 ± 301.54 nmol/g w.w.
NO2 brain concentration [3]: 218.12 ± 26.28 nmol/g w.w.
NO3 brain concentration [3]: 148.41 ± 32.30 nmol/g w.w.
acetyl-CoA brain concentration [3]: 34.85 ± 4.05 nmol/g w.w.
ascorbic acid brain concentration [3]: 2626.68 ± 151.17 nmol/g w.w.
AMP brain concentration [4]: 67.03 ± 11.85 nmol/g w.w.
CTP brain concentration [4]: 37.72 ± 7.63 nmol/g w.w.
GDP brain concentration [4]: 183.27 ± 25.32 nmol/g w.w.
GDP glucose brain concentration [4]: 83.81 ± 37.35 nmol/g w.w.
NAD^+ brain concentration [4]: 376.85 ± 64.15 nmol/g w.w.
NAD^+/NADH ratio (adimensional) [4]: 36.61 ± 6.09
UDP-GalNac brain concentration [4]: 20.75 ± 3.06 nmol/g w.w.
UTP brain concentration [4]: 142.82 ± 22.43 nmol/g w.w.
GSH brain concentration (15 mg/kg b.w. single, 30 min after trauma, 2 days post-TBI): 2418.94 ± 352.75 nmol/g w.w.
ADP-ribose brain concentration [5]: 23.06 ± 4.63 nmol/g w.w.
AMP brain concentration [5]: 66.26 ± 10.74 nmol/g w.w.
CTP brain concentration [5]: 37.53 ± 7.59 nmol/g w.w.
GDP brain concentration [5]: 194.61 ± 26.88 nmol/g w.w.
GDP glucose brain concentration [5]: 84.24 ± 37.54 nmol/g w.w.
GMP brain concentration [5]: 178.88 ± 22.46 nmol/g w.w.
NADPH brain concentration [5]: 8.93 ± 0.74 nmol/g w.w.
NADP^+ brain concentration [5]: 17.75 ± 4.06 nmol/g w.w.
NAD^+ brain concentration [5]: 475.32 ±80.91 nmol/g w.w.
NAD^+/NADH ratio (adimensional) [5]: 44.40 ± 7.67
UDP brain concentration [5]: 80.00 ± 8.20 nmol/g w.w.
UDP-GalNac brain concentration [5]: 22.37 ± 3.30 nmol/g w.w.
UDP-Glc brain concentration [5]: 43.41 ± 6.43 nmol/g w.w.
UDP-GlcNac brain concentration [5]: 108.74 ± 9.90 nmol/g w.w.
UMP brain concentration [5]: 147.53 ± 20.38 nmol/g w.w.
UTP brain concentration [5]: 108.21 ± 16.99 nmol/g w.w.
concentrations of ascorbic acid and reduced glutathione (GSH) (2 days post impact): significantly ameliorated
NAA concentration (FIG. 7) (2 days post impact, 5 or 15 mg/kg b.w.): significantly higher than values found in sTBI rats
concentrations of UTP and ADP (2 days post-sTBI): No effects
nicotinic coenzyme pool (2 days post-sTBI, 15 mg/kg b.w.): significant protection
Acetyl-CoA (2 days post-sTBI, 5 or 15 mg/kg b.w.): partial rescue
high energy phosphates (ATP, GTP, and CTP) (2 days post-sTBI, all three dosages (1, 5, 15 mg/kg)): Significantly higher values
ATP level, decrease versus value of controls (7 days post impact, untreated sTBI 35% decrease): 16%
NAA concentration, decrease versus value of controls (7 days post impact, untreated sTBI 48% lower): 16%
NAD+ level and NAD/NADH ratio (7 days post injury, single and repeat 15 mg/kg b.w.): normalize
NAA (FIG. 11) (7 days post sTBI, increasing single doses or repeat maximal dose): dose dependent increase
CoA-SH and Acetyl-CoA (7 days post-sTBI, 5 or 15 mg/kg b.w. (single and repeat)): Remarkable positive effects
ATP (FIG. 8) (7 days post-sTBI, any dose tested): significant increases
NAD^+/NADH ratio in brain homogenate (repeated 15 mg/kg b.w.): 37.47 ± 9.46
NAD^+/NADH ratio in brain homogenate (single 1 mg/kg b.w.): 33.91 ± 9.32
NAD^+/NADH ratio in brain homogenate (single 5 mg/kg b.w.): 33.90 ± 7.19
ADENOSINE concentration in brain homogenate [6]: 68.91 ± 16.50 nmol/g w.w.
CDP choline concentration in brain homogenate [6]: 8.23 ± 1.22 nmol/g w.w.
CREATININE concentration in brain homogenate [6]: 17.66 ± 3.29 nmol/g w.w.
CYTIDINE concentration in brain homogenate [6]: 13.79 ± 2.49 nmol/g w.w.
CYTOSINE concentration in brain homogenate [6]: 13.47 ± 1.65 nmol/g w.w.
URACIL concentration in brain homogenate [6]: 17.18 ± 3.36 nmol/g w.w.
CYTOSINE concentration in brain homogenate [7]: 13.65 ± 1.67 nmol/g w.w.
URACIL concentration in brain homogenate [7]: 17.83 ± 3.48 nmol/g w.w.
URIDINE concentration in brain homogenate [7]: 117.21 ± 20.64 nmol/g w.w.
XANTHINE concentration in brain homogenate [7]: 6.71 ± 0.70 nmol/g w.w.
ADENOSINE concentration in brain homogenate [8]: 53.25 ± 12.75 nmol/g w.w.
CDP choline concentration in brain homogenate [8]: 7.07 ± 1.05 nmol/g w.w.
CYTIDINE concentration in brain homogenate [8]: 11.46 ± 2.07 nmol/g w.w.
CYTOSINE concentration in brain homogenate [8]: 13.57 ± 1.66 nmol/g w.w.
